Bounds are passed on as bounds.

The values that follow come from US12590099B2, “Inhibitors of histone deacetylase useful for the treatment or prevention of HIV infection” (Merck Sharp & Dohme LLC, priority 2018, dated 2026).

One assay has as its target T1, HDAC6 (Homo sapiens, UniProt Q9UBN7).
T1 sequence (Q9UBN7 1-1215): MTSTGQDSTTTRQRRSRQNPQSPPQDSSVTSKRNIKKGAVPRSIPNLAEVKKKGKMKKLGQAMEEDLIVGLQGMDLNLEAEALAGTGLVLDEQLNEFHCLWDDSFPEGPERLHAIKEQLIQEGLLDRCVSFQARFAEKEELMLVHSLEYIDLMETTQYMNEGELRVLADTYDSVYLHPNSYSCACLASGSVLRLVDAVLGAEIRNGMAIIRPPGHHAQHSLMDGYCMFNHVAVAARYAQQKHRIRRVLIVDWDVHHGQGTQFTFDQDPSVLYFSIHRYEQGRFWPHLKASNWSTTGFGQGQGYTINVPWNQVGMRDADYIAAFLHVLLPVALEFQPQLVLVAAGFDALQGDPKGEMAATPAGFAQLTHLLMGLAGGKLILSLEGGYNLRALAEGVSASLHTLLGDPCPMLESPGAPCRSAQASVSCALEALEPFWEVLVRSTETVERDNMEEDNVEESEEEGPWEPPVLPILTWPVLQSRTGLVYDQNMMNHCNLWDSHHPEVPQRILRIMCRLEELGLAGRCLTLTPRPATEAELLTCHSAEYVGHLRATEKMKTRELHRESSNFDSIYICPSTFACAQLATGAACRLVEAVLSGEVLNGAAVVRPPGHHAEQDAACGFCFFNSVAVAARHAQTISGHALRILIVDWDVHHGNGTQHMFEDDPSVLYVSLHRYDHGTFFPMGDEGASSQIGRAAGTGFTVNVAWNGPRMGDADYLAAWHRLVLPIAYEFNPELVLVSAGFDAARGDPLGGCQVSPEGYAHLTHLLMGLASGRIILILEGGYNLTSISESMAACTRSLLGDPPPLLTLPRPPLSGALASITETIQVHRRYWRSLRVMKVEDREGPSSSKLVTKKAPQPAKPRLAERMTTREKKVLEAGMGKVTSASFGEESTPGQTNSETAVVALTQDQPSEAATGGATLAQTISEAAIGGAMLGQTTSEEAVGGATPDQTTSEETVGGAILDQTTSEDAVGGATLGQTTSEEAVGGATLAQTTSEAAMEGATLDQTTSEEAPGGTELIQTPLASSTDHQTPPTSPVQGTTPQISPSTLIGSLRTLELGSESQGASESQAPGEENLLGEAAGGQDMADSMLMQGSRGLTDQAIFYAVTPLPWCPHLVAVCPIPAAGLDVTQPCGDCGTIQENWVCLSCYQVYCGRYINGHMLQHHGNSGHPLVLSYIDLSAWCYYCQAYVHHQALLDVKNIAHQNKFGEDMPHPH
In words: Human HDAC enzyme inhibitor Fluor-de-Lys assay, HDAC6. Type of assay: biochemical.
Conditions: not given
The procedure: (§1) Human HDAC Enzyme Inhibitor Fluor-De-Lys Assay
(§2) Recombinant human HDAC8 (BML-SE145-0100) and HDAC10 (BML-SE559-0050) enzymes, HDAC substrates BML-KI104 and BML-KI178, and HDAC developer solutions BML-KI105 and BML-KI176 were purchased from Enzo Life Sciences. […] HDAC inhibitor suberoylanilide hydroxamic acid (SAHA) was obtained from Indofine and trichostatin A (TSA) was obtained from Sigma-Aldrich.
(§3) The histone deacetylase activities of HDAC1, HDAC2, HDAC3, HDAC6, and HDAC8 were measured in modified FLUOR DE LYS assays in 384-well format. In this assay, HDAC enzymes are initially incubated with an ε-acetyl (or -trifluoroacetyl)-L-lysine-containing substrate with a C-terminal amide having aminomethylcoumarin as the amine component. HDACs cleave the ε-acetyl group, rendering the resulting product susceptible to AMC cleavage by trypsin. The released AMC is then detected by its fluorescence.
(§4) The HDAC3/SMRT assay employed buffer B, consisting of 20 mM HEPES, pH 8.0, 1 mM MgCl2, 50 mM NaCl, 2.7 mM KCl, 0.05% BSA, 0.005% Tween 20, and 10 μM IP4. […] The HDAC8 assay employed buffer D, consisting of 20 mM HEPES, pH 8.0, 1 mM MgCl2, 100 mM NaCl, 20 mM KCl, 0.10% n-octyl-β-D-glucoside (Anatrace) and 0.05% BSA. All steps were performed at room temperature (23° C.). The assay was performed by pre-incubating serial dilutions of test compounds with the target HDAC prior to initiation with substrate. Each compound was titrated in a 10-point dose response, using a 1:3 fold dilution scheme, with 0.15 ul of solution added by ECH0555 to the plate, followed by the addition of 20 μl of the appropriate HDAC isoform diluted in appropriate assay buffer. […] Final conditions used for each assay were: 1. HDAC 1, 0.3 nM total enzyme, 20 μM substrate BML-KI104; 2. […] HDAC 3/SMRT, 0.3 nM total enzyme, 20 μM substrate BML-KI104; 4. […] The reactions were stopped and developed by addition of 30 ul of HDAC developer solution containing a saturating level of HDAC inhibitor as follows: 1.
Broadly, the IC50 is the midpoint of a concentration-inhibition curve. On to `CCC(=O)CCCCC[C@H](NC(=O)[C@H]1CC12CCN(CC)CC2)c1ncc(-c2ccc(C)cc2OC)[nH]1` [Compound 208], for which the midpoint of inhibition, the IC50, lay at 0.756 µM.

Take `CCN1CCC2(CC1)C[C@@H]2C(=O)N[C@@H](CCCCCC(=O)CC1CC1)c1ncc(-c2cccnc2OC)[nH]1` [Compound 202]: the 50% inhibitory concentration (IC50) came to 34.9 µM.

Regarding `CCC(=O)CCCCC[C@H](NC(=O)C1CC12CCC(N(C)C)CC2)c1ncc(-c2cc3ccccc3nc2OC)[nH]1` (single isomer, unassigned) [Compound 127], the 50% inhibitory concentration (IC50) was found to be 0.364 µM.

Still in this assay, the particulars now being: HDAC6, Fluor-de-Lys assay.
As to `CCC(=O)CCCCC[C@H](NC(=O)[C@H]1CC12CCN(CC1CC1)CC2)c1ncc(-c2cc3cccnc3cc2OC)[nH]1` [Compound 394], the IC50 came out at 0.076 µM.

On to `CCC(=O)CCCCC[C@H](NC(=O)[C@H]1CC12CCN(CC)CC2)c1ncc(-c2ccc3cccnc3c2)[nH]1` [Compound 344], for which it took 0.862 µM to reach half-maximal inhibition (IC50).

Take `CCC(=O)CCCCC[C@H](NC(=O)[C@H]1CC12CCN(CC)CC2)c1ncc(-c2cc3ccn(CC)c(=O)c3cc2OC)[nH]1` [Compound 245]: half-maximal inhibition (IC50) was put at 0.694 µM.

For the next assay, the target named is T2, Recombinant human HDAC8 (Homo sapiens, UniProt Q9BY41).
T2 construct: purchased Enzo Life Sciences BML-SE145-0100
T2 sequence (Q9BY41 1-377): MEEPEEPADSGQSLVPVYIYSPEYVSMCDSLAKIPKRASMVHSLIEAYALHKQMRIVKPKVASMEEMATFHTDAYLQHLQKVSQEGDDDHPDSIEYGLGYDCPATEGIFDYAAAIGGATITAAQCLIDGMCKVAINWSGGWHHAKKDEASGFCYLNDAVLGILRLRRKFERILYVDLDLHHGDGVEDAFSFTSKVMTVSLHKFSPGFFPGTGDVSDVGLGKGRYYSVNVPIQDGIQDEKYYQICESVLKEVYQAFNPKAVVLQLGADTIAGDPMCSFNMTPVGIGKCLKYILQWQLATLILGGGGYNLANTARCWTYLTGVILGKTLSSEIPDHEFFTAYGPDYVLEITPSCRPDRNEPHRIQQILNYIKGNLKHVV
Briefly: Human HDAC enzyme inhibitor Fluor-de-Lys assay, HDAC8. Type of assay: biochemical.
Conditions: not given
The procedure: as §1, §2, §3, §4
Regarding `CCC(=O)CCCCC[C@H](NC(=O)[C@H]1CC12CCN(CC)CC2)c1ncc(-c2ccc(C)cc2OC)[nH]1` [Compound 208], the concentration for half-maximal inhibition (IC50) turned out to be 1.45 µM.

Turning to `CCN1CCC2(CC1)C[C@@H]2C(=O)N[C@@H](CCCCCC(=O)CC1CC1)c1ncc(-c2cccnc2OC)[nH]1` [Compound 202], the 50% inhibitory concentration (IC50) was 8.78 µM.

`CCC(=O)CCCCC[C@H](NC(=O)C1CC12CCC(N(C)C)CC2)c1ncc(-c2cc3ccccc3nc2OC)[nH]1` (single isomer, unassigned) [Compound 127]: the IC50 amounted to 0.076 µM.

Staying with this assay, now noted: recombinant human HDAC8, Fluor-de-Lys assay.
For the compound `CCC(=O)CCCCC[C@H](NC(=O)[C@H]1CC12CCN(CC1CC1)CC2)c1ncc(-c2cc3cccnc3cc2OC)[nH]1` [Compound 394], the IC50 is greater than 0.9 µM.

Consider `CCC(=O)CCCCC[C@H](NC(=O)[C@H]1CC12CCN(CC)CC2)c1ncc(-c2ccc3cccnc3c2)[nH]1` [Compound 344], for which the half-maximal inhibitory concentration (IC50) was determined as 3.42 µM.

For the compound `CCC(=O)CCCCC[C@H](NC(=O)[C@H]1CC12CCN(CC)CC2)c1ncc(-c2cc3ccn(CC)c(=O)c3cc2OC)[nH]1` [Compound 245], the IC50 came to 9.01 µM.

For the next assay, the system named is KARN cells (Jurkat 2C4). Briefly: cells. Type of assay: cell-based. The conditions noted are these: Homo sapiens, Jurkat, read-out: Karn EC50 (nM) 0.1% NHS, 0.1% normal human serum. The procedure: KARN cells (Jurkat 2C4) were licensed from the laboratory of Dr. John Karn, Case Western Reserve University, School of Medicine. […] An atmosphere of 5% CO2 and 90% humidity was used for all culture work.
Day 1: After the 3-4 day growth period, the cells were transferred from the T175 flask to a 50 ml conical tube and gently pelleted at 1000 rpm for 5 minutes. […] These flasks were returned to the incubator.
Day 2: Cell Preparation: The next day, the cells were transferred from each T175 flask to an individual 50 ml conical tube and gently pelleted at 1000 rpm for 5 minutes. The cells were gently resuspended in assay media (30 ml) and pelleted again. […] The cells were counted using the ViCell (Beckman Coulter) and diluted as necessary. […] The plates were covered and returned to the incubator prior to compound addition.
The reference compounds, DMSO and SAHA were then added to the compound plate. […] The final high concentration for SAHA and the test compounds in the assays was 40 μM. The final DMSO concentration in all wells was 0.4%. The minimal induction reference compound used was DMSO and the maximal induction reference compound used was SAHA (2 μM final concentration in the assay).
Day 3: The luciferase detection reagent was prepared by transferring the contents of one bottle of Steady-Glo buffer to one bottle of Steady-Glo aubstrate (Steady-Glo Luciferase Assay System, Promega, catalog number E2520), followed by gently mixing until the substrate was thoroughly dissolved and the solution was equilibrated to room temperature. […] The Steady-Glo Reagent was added to the plates (30 μl/well), which were then covered with a black lid and incubated for 10 minutes at room temperature. The plates were then read for luminescence on an Envision (Perkin Elmer) using the ultrasensitive mode (US LUM), […] and 384-well aperture. Luminescence counts in the DMSO reference wells were considered as 0% induction, while those in the 2 μM SAHA reference wells were considered as 100% induction. Dose response curves were plotted as test compound concentration (X-axis) vs. percent activation (Y-axis) using a 4-parameter fit based on the Levenberg-Marquardt algorithm.
As usually defined, the EC50 is the concentration needed to bring the measured effect to its halfway point. Regarding `CCC(=O)CCCCC[C@H](NC(=O)[C@H]1CC12CCN(CC)CC2)c1ncc(-c2ccc(C)cc2OC)[nH]1` [Compound 208], the EC50 was 53 nM.

For `CCN1CCC2(CC1)C[C@@H]2C(=O)N[C@@H](CCCCCC(=O)CC1CC1)c1ncc(-c2cccnc2OC)[nH]1` [Compound 202], the half-maximal effective concentration (EC50) turned out to be 210 nM.

Staying with this assay, now noted: Homo sapiens, Jurkat, read-out: Karn EC50 (nM) 0.1% NHS, 0.1% normal human serum; luciferase induction, 100% = 2 μM SAHA.
With `CCC(=O)CCCCC[C@H](NC(=O)[C@H]1CC12CCN(CC1CC1)CC2)c1ncc(-c2cc3cccnc3cc2OC)[nH]1` [Compound 394], the EC50 came out at 18 nM.

On to `CCC(=O)CCCCC[C@H](NC(=O)[C@H]1CC12CCN(CC)CC2)c1ncc(-c2ccc3cccnc3c2)[nH]1` [Compound 344], for which the 50% effective concentration (EC50) came out at 37 nM.

Regarding `CCC(=O)CCCCC[C@H](NC(=O)[C@H]1CC12CCN(CC)CC2)c1ncc(-c2cc3ccn(CC)c(=O)c3cc2OC)[nH]1` [Compound 245], the EC50 turned out to be 18 nM.

Still in this assay, the particulars now being: Homo sapiens, Jurkat, read-out: Karn EC50 (nM) 5% NHS, 5% normal human serum.
As to `CCC(=O)CCCCC[C@H](NC(=O)[C@H]1CC12CCN(CC)CC2)c1ncc(-c2ccc(C)cc2OC)[nH]1` [Compound 208], the EC50 was 63 nM.

Consider `CCN1CCC2(CC1)C[C@@H]2C(=O)N[C@@H](CCCCCC(=O)CC1CC1)c1ncc(-c2cccnc2OC)[nH]1` [Compound 202], for which the EC50 came to 501 nM.

Staying with this assay, now noted: Homo sapiens, Jurkat, read-out: Karn EC50 (nM) 5% NHS, 5% normal human serum; luciferase induction, 100% = 2 μM SAHA.
Take `CCC(=O)CCCCC[C@H](NC(=O)[C@H]1CC12CCN(CC1CC1)CC2)c1ncc(-c2cc3cccnc3cc2OC)[nH]1` [Compound 394]: the EC50 came out at 24 nM.

Consider `CCC(=O)CCCCC[C@H](NC(=O)[C@H]1CC12CCN(CC)CC2)c1ncc(-c2ccc3cccnc3c2)[nH]1` [Compound 344], for which the concentration giving a half-maximal response (EC50) was found to be 54 nM.

As to `CCC(=O)CCCCC[C@H](NC(=O)[C@H]1CC12CCN(CC)CC2)c1ncc(-c2cc3ccn(CC)c(=O)c3cc2OC)[nH]1` [Compound 245], the EC50 worked out at 22 nM.

Still in this assay, the particulars now being: read-out: Karn EC50 (nM) 0.1% NHS; 0.1% normal human serum.
Regarding `CCC(=O)CCCCC[C@H](NC(=O)C1CC12CCC(N(C)C)CC2)c1ncc(-c2cc3ccccc3nc2OC)[nH]1` (single isomer, unassigned) [Compound 127], the EC50 came out at 37 nM.

The assay is the same for the next values; noted with them: read-out: Karn EC50 (nM) 5% NHS; 5% normal human serum.
Regarding `CCC(=O)CCCCC[C@H](NC(=O)C1CC12CCC(N(C)C)CC2)c1ncc(-c2cc3ccccc3nc2OC)[nH]1` (single isomer, unassigned) [Compound 127], the EC50 came to 60 nM.
